These are literature values, as cited in US20160199460A1, “COMPOSITIONS FOR REDUCING THE DELETERIOUS EFFECTS OF STRESS AND AGING” (HydroPep, LLC, priority 2010, published 2016).

The subject of this series is aging individuals (>50 years of age). The settings on record: oral D-ribose; aging individuals (>50 years of age) with tiredness for at least one month.

Each structure is given as a SMILES string.

With `O=C[C@H](O)[C@H](O)[C@H](O)CO` [D-ribose], the “Physical fatigue and mental outlook” value is recorded as “lessening physical fatigue”.
